According to patent US20240285554A1, “POLYVINYL ALCOHOL COMPOSITIONS AND METHODS OF MAKING AND USING THEM” (Emanate Biomedical, Inc., priority 2023, published 2024):

Assays:
[1] = test system: oral pathogenic bacteria; settings: cited from earlier work
[2] = test system: gram positive bacteria and gram negative bacteria; assay: Zone of Inhibition (ZOI) testing; format: cell-based; settings: composition with 0.005%, 0.025%, 0.05%, 0.1%, and 0.15% w/w of CHG
From the text: (§1) The CHG concentration of 0.05% w/w was the lowest dose showing strong efficacy against both bacteria and fungus and was therefore selected as the suitable preservative concentration.

[3] = test system: C. albicans ATCC 10231; assay: Antimicrobial efficacy testing (modified AATCC 100 test); format: cell-based, Candida albicans; settings: contact time 30 min, study NG17964
From the text: as §1

[4] = test system: C. tropicalis ATCC 750; assay: as above; format: cell-based, Candida tropicalis
From the text: as §1

[5] = test system: S. aureus ATCC 6538; assay: as above; format: cell-based, Staphylococcus aureus; settings: for Log10 Reduction Compared to Control / Percent Reduction Compared to Control / Average CFU/carrier: S. aureus ATCC 6538, study NG17598-A1; for Average CFU/carrier: limit of detection
From the text: as §1

[6] = test system: P. aeruginosa ATCC 9027; assay: as above; format: cell-based, Pseudomonas aeruginosa; settings: for Log10 Reduction Compared to Control / Percent Reduction Compared to Control / Average CFU/carrier: P. aeruginosa ATCC 9027, study NG17598-A1; for Average CFU/carrier: limit of detection
From the text: as §1

[7] = test system: bacteria and fungus; assay: Antimicrobial efficacy, choice of preservative concentration; format: cell-based; settings: selected as the suitable preservative concentration
From the text: as §1

[8] = test system: C. tropicalis ATCC 750; assay: Antimicrobial efficacy testing (modified AATCC 100 test); format: cell-based, Candida tropicalis; settings: for Average CFU/carrier / Log10 Reduction Compared to Control / Percent Reduction Compared to Control: C. tropicalis ATCC 750, contact time 30 min, study NG17964; for efficacy: tested against Candida albicans and Candida tropicalis
[9] = C. tropicalis ATCC 750, CHG Conc 0.05 % w/w, contact time 30 min, study NG17964
[10] = CHG Conc 0.005 % w/w, contact time 30 min
[11] = CHG Conc 0.1 % w/w, contact time 60 min
[12] = CHG Conc 0.1 % w/w, contact time 24 hrs

## [H]/N=C(\N/C(=N/[H])NCCCCCCNC(=N)NC(=N)Nc1ccc(Cl)cc1)Nc1ccc(Cl)cc1 [Chlorhexidine, chlorhexidine]
[1]; against oral pathogenic bacteria
  MIC: 0.0125 % w/v
[1]; at 10 minutes
  MBC: 0.5 % w/v

## N=C(NCCCCCCNC(=N)NC(=N)Nc1ccc(Cl)cc1)NC(=N)Nc1ccc(Cl)cc1.O=C(O)[C@H](O)[C@@H](O)[C@H](O)[C@H](O)CO.O=C(O)[C@H](O)[C@@H](O)[C@H](O)[C@H](O)CO [CHG]
[2]
  effect in Zone of Inhibition (ZOI) testing: showed inhibitory effects
[3]; CHG Conc 0.005 % w/w
  Average CFU/carrier: 1.00E+05 CFU/carrier
  Log10 Reduction Compared to Control: 0.25
  Percent Reduction Compared to Control: 43.52%
[3]; CHG Conc 0.05 % w/w
  Average CFU/carrier: 2.48E+02 CFU/carrier
  Log10 Reduction Compared to Control: 2.86
  Percent Reduction Compared to Control: 99.86%
[3]; CHG Conc 0.1 % w/w
  Average CFU/carrier: 7.50E+00 CFU/carrier
  Log10 Reduction Compared to Control: 4.37
  Percent Reduction Compared to Control: 99.996%
[4]; [9]
  Log10 Reduction Compared to Control: >4.46
  Percent Reduction Compared to Control: >99.997%
[4]; C. tropicalis ATCC 750, CHG Conc 0.05 % w/w, contact time 30 min, study NG17964, limit of detection
  Average CFU/carrier: <5.00E+00^1 CFU/carrier
[4]; tested against Candida albicans and Candida tropicalis, CHG 0.05% w/w
  efficacy: 99.997%
[5]; [10]
  Log10 Reduction Compared to Control: >4.40
  Percent Reduction Compared to Control: >99.996%
  Average CFU/carrier: <5.00E+00^1 CFU/carrier
[5]; [11]
  Log10 Reduction Compared to Control: >4.57
  Percent Reduction Compared to Control: >99.997%
  Average CFU/carrier: <5.00E+00^1 CFU/carrier
[5]; [12]
  Log10 Reduction Compared to Control: >4.58
  Percent Reduction Compared to Control: >99.997%
  Average CFU/carrier: <5.00E+00^1 CFU/carrier
[5]; Staphylococcus aureus, CHG 0.05% w/w, after 30 min contact time
  reduction of the concentration of microorganisms: more than 99.99%
[5]; Staphylococcus aureus, CHG 0.1% w/w, after 60 min and 24 hour contact time
  reduction of the concentration of the microorganisms: more than 99.99%
[6]; [10]
  Log10 Reduction Compared to Control: >4.43
  Percent Reduction Compared to Control: >99.996%
  Average CFU/carrier: <5.00E+00^1 CFU/carrier
[6]; [11]
  Log10 Reduction Compared to Control: >4.53
  Percent Reduction Compared to Control: >99.996%
  Average CFU/carrier: <5.00E+00^1 CFU/carrier
[6]; [12]
  Log10 Reduction Compared to Control: >4.70
  Percent Reduction Compared to Control: >99.998%
  Average CFU/carrier: <5.00E+00^1 CFU/carrier
[6]; Pseudomonas aeruginosa, CHG 0.05% w/w, after 30 min contact time
  reduction of the concentration of microorganisms: more than 99.99%
[6]; Pseudomonas aeruginosa, CHG 0.1% w/w, after 60 min and 24 hour contact time
  reduction of the concentration of the microorganisms: more than 99.99%
[7]
  lowest dose showing strong efficacy against both bacteria and fungus: 0.05 % w/w
[8]; CHG Conc 0.005 % w/w
  Average CFU/carrier: 2.70E+04 CFU/carrier
  Log10 Reduction Compared to Control: 0.73
  Percent Reduction Compared to Control: 81.38%
[8]; CHG Conc 0.1 % w/w
  Log10 Reduction Compared to Control: >4.46
  Percent Reduction Compared to Control: >99.997%
[8]; CHG Conc 0.1 % w/w, limit of detection
  Average CFU/carrier: <5.00E+00^1 CFU/carrier
[8]; CHG 0.005% w/w
  efficacy: 81.38%
[8]; CHG 0.1% w/w
  efficacy: 99.997%
